Measurements from ChEMBL document CHEMBL1201862, “PubChem BioAssay data set” (2004).
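Five compound concentrations were applied to cells in 96-well plates for 48 hours; endpoints were derived by simple linear interpolation of the resulting dose-response curve. GI50 marks 50% less growth.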 Active and inactive are the calls of the source. No stated cut-off is given here; in the data, active = GI50 up to about 1.1 µM and inactive = higher.

How the values were obtained:
Assay in all cases: NCI-60 cell line screen, 48 h
[1] = test system: 786-0
[2] = test system: A498
[3] = test system: A549
[4] = test system: ACHN
[5] = test system: CAKI-1
[6] = test system: CCRF-CEM
[7] = test system: COLO 205
[8] = test system: DLD-1
[9] = test system: DMS-114
[10] = test system: DMS-273
[11] = test system: EKVX
[12] = test system: HCC 2998
[13] = test system: HCT-116
[14] = test system: HCT-15
[15] = test system: HL-60
[16] = test system: HOP-18
[17] = test system: HOP-62
[18] = test system: HOP-92
[19] = test system: HT-29
[20] = test system: IGROV-1
[21] = test system: K562
[22] = test system: KM-20L2
[23] = test system: KM12
[24] = test system: LOX IMVI
[25] = test system: LXFL 529
[26] = test system: M14
[27] = test system: M19-MEL
[28] = test system: MOLT-4
[29] = test system: Malme-3M
[30] = test system: NCI-H226
[31] = test system: NCI-H23
[32] = test system: NCI-H460
[33] = test system: NCI-H522
[34] = test system: OVCAR-3
[35] = test system: OVCAR-4
[36] = test system: OVCAR-5
[37] = test system: OVCAR-8
[38] = test system: RPMI-8226
[39] = test system: RXF 393
[40] = test system: SF-268
[41] = test system: SF-295
[42] = test system: SF-539
[43] = test system: SK-MEL-28
[44] = test system: SK-MEL-2
[45] = test system: SK-MEL-5
[46] = test system: SK-OV-3
[47] = test system: SN12C
[48] = test system: SNB-19
[49] = test system: SNB-75
[50] = test system: SNB-78
[51] = test system: SR
[52] = test system: SW-620
[53] = test system: TK-10
[54] = test system: U-251
[55] = test system: UACC-257
[56] = test system: UACC-62
[57] = test system: UO-31
[58] = test system: XF498

**Q.** Which GI50 [1] does the source give for CC(C)(Oc1ccc(/C=C/C(=O)c2ccccc2)cc1)C(=O)Nc1c(Cl)cccc1Cl here?
**A.** > 10 µM (inactive)

**Q.** What about the GI50 [2] of the same compound?
**A.** 0.524 µM (active)

**Q.** What about the GI50 [3] of the same compound?
**A.** > 10 µM (inactive)

**Q.** What about the GI50 [4] of the same compound?
**A.** > 10 µM (inactive)

**Q.** And the GI50 [5]?
**A.** > 10 µM (inactive)

**Q.** And the GI50 [6]?
**A.** 15 µM (inactive)

**Q.** And the GI50 [7]?
**A.** > 10 µM (inactive)

**Q.** What about the GI50 [8] of the same compound?
**A.** > 10 µM (inactive)

**Q.** What about the GI50 [9] of the same compound?
**A.** 8.47 µM (inactive)

**Q.** What about the GI50 [10] of the same compound?
**A.** 8.07 µM (inactive)

**Q.** What about the GI50 [11] of the same compound?
**A.** > 10 µM (inactive)

**Q.** And the GI50 [12]?
**A.** > 10 µM (inactive)

**Q.** And the GI50 [13]?
**A.** > 10 µM (inactive)

**Q.** And the GI50 [14]?
**A.** > 10 µM

**Q.** And the GI50 [15]?
**A.** 14.7 µM (inactive)

**Q.** What about the GI50 [16] of the same compound?
**A.** > 10 µM (inactive)

**Q.** And the GI50 [17]?
**A.** > 10 µM (inactive)

**Q.** What about the GI50 [18] of the same compound?
**A.** > 10 µM (inactive)

**Q.** And the GI50 [19]?
**A.** > 10 µM (inactive)

**Q.** And the GI50 [20]?
**A.** > 10 µM (inactive)

**Q.** And the GI50 [21]?
**A.** 17 µM (inactive)

**Q.** And the GI50 [22]?
**A.** > 10 µM (inactive)

**Q.** What about the GI50 [23] of the same compound?
**A.** 4.07 µM (inactive)

**Q.** What about the GI50 [24] of the same compound?
**A.** > 10 µM (inactive)

**Q.** And the GI50 [25]?
**A.** 6.56 µM (inactive)

**Q.** What about the GI50 [26] of the same compound?
**A.** > 10 µM (inactive)

**Q.** What about the GI50 [27] of the same compound?
**A.** > 10 µM (inactive)

**Q.** And the GI50 [28]?
**A.** > 10 µM (inactive)

**Q.** What about the GI50 [29] of the same compound?
**A.** > 10 µM (inactive)

**Q.** What about the GI50 [30] of the same compound?
**A.** > 10 µM (inactive)

**Q.** What about the GI50 [31] of the same compound?
**A.** 7.33 µM (inactive)

**Q.** What about the GI50 [32] of the same compound?
**A.** > 10 µM (inactive)

**Q.** And the GI50 [33]?
**A.** 4.67 µM (inactive)

**Q.** What about the GI50 [34] of the same compound?
**A.** 6.95 µM (inactive)

**Q.** And the GI50 [35]?
**A.** > 10 µM (inactive)

**Q.** What about the GI50 [36] of the same compound?
**A.** > 10 µM (inactive)

**Q.** What about the GI50 [37] of the same compound?
**A.** > 10 µM (inactive)

**Q.** And the GI50 [38]?
**A.** > 10 µM (inactive)

**Q.** What about the GI50 [39] of the same compound?
**A.** > 10 µM (inactive)

**Q.** And the GI50 [40]?
**A.** > 10 µM (inactive)

**Q.** And the GI50 [41]?
**A.** > 10 µM (inactive)

**Q.** What about the GI50 [42] of the same compound?
**A.** > 10 µM (inactive)

**Q.** And the GI50 [43]?
**A.** > 10 µM (inactive)

**Q.** And the GI50 [44]?
**A.** > 10 µM (inactive)

**Q.** What about the GI50 [45] of the same compound?
**A.** > 10 µM (inactive)

**Q.** And the GI50 [46]?
**A.** > 10 µM (inactive)

**Q.** And the GI50 [47]?
**A.** > 10 µM (inactive)

**Q.** What about the GI50 [48] of the same compound?
**A.** > 10 µM (inactive)

**Q.** And the GI50 [49]?
**A.** > 10 µM (inactive)

**Q.** What about the GI50 [50] of the same compound?
**A.** > 10 µM (inactive)

**Q.** What about the GI50 [51] of the same compound?
**A.** 3.48 µM (inactive)

**Q.** What about the GI50 [52] of the same compound?
**A.** 7.08 µM (inactive)

**Q.** What about the GI50 [53] of the same compound?
**A.** > 10 µM (inactive)

**Q.** What about the GI50 [54] of the same compound?
**A.** 7.14 µM (inactive)

**Q.** And the GI50 [55]?
**A.** > 10 µM (inactive)

**Q.** What about the GI50 [56] of the same compound?
**A.** > 10 µM (inactive)

**Q.** And the GI50 [57]?
**A.** > 10 µM (inactive)

**Q.** And the GI50 [58]?
**A.** > 10 µM (inactive)
